Measurements from PubChem BioAssay AID248 (DTP/NCI, 2004).
Several values for one entry are separate records, joined by “and”; a condition that tells them apart may be missing. Equal entries are not always repeated. Toxic doses and inconclusive results are not listed. No stated cut-off is given here; in the data, active means T/C of 150% or more; inactive means T/C below 125%.

Tested on: L1210 leukemia ip in BDF1 mice, survival T/C
Assay: NCI In Vivo Anticancer Drug Screen. Data for tumor model L1210 Leukemia (intraperitoneal) in B6D2F1 (BDF1) mice
Details: endpoint: mean survival time, higher = longer survival
Summary of the method: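 Mice bearing the transplanted tumor received compound or vehicle. Survival of the treated group was divided by that of the vehicle-treated control group to give the ratio.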

[1] = dose: 100.0 mg/kg/injection, schedule: Q01DX001 (ip), vehicle: saline
[2] = dose: 200.0 mg/kg/injection, schedule: Q01DX001 (ip), vehicle: saline
[3] = dose: 400.0 mg/kg/injection, schedule: Q01DX001 (ip), vehicle: saline
[4] = dose: 50.0 mg/kg/injection, schedule: Q01DX001 (ip), vehicle: saline
[5] = dose: 100.0 mg/kg/injection, schedule: Q04DX003 (ip), vehicle: Klucel (hydroxypropylcellulose) (HPC)
[6] = dose: 200.0 mg/kg/injection, schedule: Q04DX003 (ip), vehicle: Klucel (hydroxypropylcellulose) (HPC)
[7] = dose: 400.0 mg/kg/injection, schedule: Q04DX003 (ip), vehicle: Klucel (hydroxypropylcellulose) (HPC)
[8] = dose: 50.0 mg/kg/injection, schedule: Q01DX001 (ip), vehicle: carboxymethylcellulose (CMC)
[9] = dose: 100.0 mg/kg/injection, schedule: Q01DX001 (ip), vehicle: carboxymethylcellulose (CMC)
[10] = dose: 200.0 mg/kg/injection, schedule: Q01DX001 (ip), vehicle: carboxymethylcellulose (CMC)
[11] = dose: 400.0 mg/kg/injection, schedule: Q01DX001 (ip), vehicle: carboxymethylcellulose (CMC)
[12] = dose: 100.0 mg/kg/injection, schedule: Q01DX009 (ip), vehicle: Klucel (hydroxypropylcellulose) (HPC)
[13] = dose: 200.0 mg/kg/injection, schedule: Q01DX009 (ip), vehicle: Klucel (hydroxypropylcellulose) (HPC)
[14] = dose: 400.0 mg/kg/injection, schedule: Q01DX009 (ip), vehicle: Klucel (hydroxypropylcellulose) (HPC)
[15] = dose: 75.0 mg/kg/injection, schedule: Q01DX001 (ip), vehicle: saline
[16] = dose: 100.0 mg/kg/injection, schedule: Q01DX009 (ip), vehicle: saline with Tween-80
[17] = dose: 100.0 mg/kg/injection, schedule: Q04DX003 (ip), vehicle: saline with Tween-80
[18] = dose: 200.0 mg/kg/injection, schedule: Q01DX009 (ip), vehicle: saline with Tween-80
[19] = dose: 200.0 mg/kg/injection, schedule: Q04DX003 (ip), vehicle: saline with Tween-80
[20] = dose: 400.0 mg/kg/injection, schedule: Q04DX003 (ip), vehicle: saline with Tween-80

Measured: T/C

CC12CCCCC1(OC(=O)c1ccc([N+](=O)[O-])cc1)CCCC2 (stereo unspecified)
inactive: dose: 75.0 mg/kg/injection, schedule: Q04DX002 (ip), vehicle: saline with Tween-80 100 % of control | dose: 150.0 mg/kg/injection, schedule: Q04DX002 (ip), vehicle: saline with Tween-80 104 % of control | dose: 300.0 mg/kg/injection, schedule: Q04DX002 (ip), vehicle: saline with Tween-80 88 % of control

OCC(O)COc1ccccc1 (stereo unspecified)
inactive: [1] 108 % of control | [2] 96 % of control | [3] 96 % of control

CC12CCC(C)(O)C(CC3=C1CCc1ccccc13)C2=O (stereo unspecified)
inactive: dose: 100.0 mg/kg/injection, schedule: Q04DX003 (ip), vehicle: saline 107 % of control | dose: 200.0 mg/kg/injection, schedule: Q04DX003 (ip), vehicle: saline 104 % of control | dose: 400.0 mg/kg/injection, schedule: Q04DX003 (ip), vehicle: saline 106 % of control

N#CCC(C#N)C1C=CCC1 (stereo unspecified)
inactive: dose: 5.0 mg/kg/injection, schedule: Q01DX001 (ip), vehicle: saline 97 % of control | dose: 10.0 mg/kg/injection, schedule: Q01DX001 (ip), vehicle: saline 97 % of control | dose: 12.5 mg/kg/injection, schedule: Q04DX003 (ip), vehicle: saline with Tween-80 98 % of control

CN(C)CCCN=C(N)CCl
inactive: dose: 12.5 mg/kg/injection, schedule: Q04DX002 (ip), vehicle: saline 101 % of control | dose: 25.0 mg/kg/injection, schedule: Q04DX002 (ip), vehicle: saline 108 % of control | dose: 50.0 mg/kg/injection, schedule: Q04DX002 (ip), vehicle: saline 87 % of control | dose: 100.0 mg/kg/injection, schedule: Q04DX002 (ip), vehicle: saline 97 % of control

O=C1CCCN1C1CC2c3ccccc3C1c1cccc[n+]12 (stereo unspecified)
inactive: dose: 5.0 mg/kg/injection, schedule: Q01DX009 (ip), vehicle: saline sonified 94 % of control | dose: 10.0 mg/kg/injection, schedule: Q01DX009 (ip), vehicle: saline sonified 98 % of control | dose: 20.0 mg/kg/injection, schedule: Q01DX009 (ip), vehicle: saline sonified 97 % of control

OCC(O)C(O)C(O)C(c1ccccc1)c1ccccc1 (stereo unspecified)
inactive: [4] 107 % of control | [1] 98 % of control | [2] 96 % of control | [3] 98 % of control

Nc1cc(Br)cc2c1nc(NCCO)c1ccccc12
inactive: dose: 50.0 mg/kg/injection, schedule: Q04DX003 (ip), vehicle: Klucel (hydroxypropylcellulose) (HPC) 118 % of control | [5] 102 % of control | [6] 97 % of control | [7] 105 % of control

NC(=O)c1cc(C(N)=O)c(N)nc1N
inactive: [5] 100 % of control | [6] 97 % of control | [7] 94 % of control

CC(C)(CCC(=O)O)CCC(=O)O
inactive: [8] 100 % of control | [9] 111 % of control | [10] 100 % of control | [11] 94 % of control

OC1(C#[C][Hg][C]#CC2(O)CCCCC2)CCCCC1
inactive: [5] 98 % of control | [6] 100 % of control

C=CCN(CCN(CC)CC)C(=O)C(O)(c1ccccc1)c1ccccc1
inactive: dose: 100.0 mg/kg/injection, schedule: Q04DX002 (ip), vehicle: saline with Tween-80 93 % of control | dose: 200.0 mg/kg/injection, schedule: Q04DX002 (ip), vehicle: saline with Tween-80 93 % of control | dose: 400.0 mg/kg/injection, schedule: Q04DX002 (ip), vehicle: saline with Tween-80 95 % of control

O=C(Nc1cccc(C(F)(F)F)c1)Oc1ccc(F)cc1
inactive: dose: 100.0 mg/kg/injection, schedule: Q01DX001 (ip), vehicle: Klucel (hydroxypropylcellulose) (HPC) 104 % of control | [12] 107 % of control and 116 % of control | dose: 100.0 mg/kg/injection, schedule: Q04DX002 (ip), vehicle: Klucel (hydroxypropylcellulose) (HPC) 92 % of control | [5] 94 % of control | dose: 200.0 mg/kg/injection, schedule: Q01DX001 (ip), vehicle: Klucel (hydroxypropylcellulose) (HPC) 109 % of control | [13] 104 % of control and 115 % of control | dose: 200.0 mg/kg/injection, schedule: Q04DX002 (ip), vehicle: Klucel (hydroxypropylcellulose) (HPC) 93 % of control and 92 % of control | [6] 99 % of control | dose: 400.0 mg/kg/injection, schedule: Q01DX001 (ip), vehicle: Klucel (hydroxypropylcellulose) (HPC) 98 % of control | [14] 104 % of control and 113 % of control | dose: 400.0 mg/kg/injection, schedule: Q04DX002 (ip), vehicle: Klucel (hydroxypropylcellulose) (HPC) 102 % of control and 108 % of control | [7] 105 % of control

c1cc2c(cc1CNC1CCCCC1)OCO2
inactive: [15] 100 % of control

NC(N)=N/N=C(\C=N\N=C(N)N)c1ccc(CCc2ccc(C(/C=N/N=C(N)N)=N\N=C(N)N)cc2)cc1
inactive: dose: 1.56 mg/kg/injection, schedule: Q04DX003 (ip), vehicle: saline 98 % of control | dose: 3.12 mg/kg/injection, schedule: Q04DX003 (ip), vehicle: saline 103 % of control

COc1ccc2c3c1OC1C(=O)CCC4C(C2)N(C)CCC314 (stereo unspecified)
inactive: [15] 94 % of control

CCOC(=O)C(CC)C1=CCCCC1 (stereo unspecified)
inactive: [16] 97 % of control | [17] 91 % of control | [18] 103 % of control | [19] 99 % of control | [20] 91 % of control

Cc1ccc(S(=O)(=O)Nc2cc(C)cc(CCNC=O)c2C)cc1
inactive: [8] 114 % of control | [9] 109 % of control | [10] 95 % of control | [11] 93 % of control

O=Cc1c[nH]c2ccccc12
inactive: [1] 104 % of control | [12] 103 % of control | [5] 110 % of control | [2] 98 % of control | [13] 102 % of control | [6] 105 % of control | [3] 97 % of control | [14] 107 % of control | [7] 98 % of control

CNC(=O)Oc1ccc(N=Nc2ccccc2)cc1
inactive: dose: 100.0 mg/kg/injection, schedule: Q01DX001 (ip), vehicle: other 96 % of control | dose: 200.0 mg/kg/injection, schedule: Q01DX001 (ip), vehicle: other 96 % of control | dose: 400.0 mg/kg/injection, schedule: Q01DX001 (ip), vehicle: other 96 % of control

O=[N+]([O-])c1cccc(/C=[N+](\[O-])c2ccccc2)c1
inactive: [4] 100 % of control | [1] 96 % of control | [2] 100 % of control | [3] 102 % of control

C[CH2][Ge]([CH2]C)([CH2]C)[CH2]C#N
inactive: dose: 5.0 mg/kg/injection, schedule: Q04DX002 (ip), vehicle: saline with Tween-80 100 % of control | dose: 10.0 mg/kg/injection, schedule: Q04DX002 (ip), vehicle: saline with Tween-80 103 % of control | dose: 20.0 mg/kg/injection, schedule: Q04DX002 (ip), vehicle: saline with Tween-80 100 % of control

Nc1ccc(CCCCOc2ccccc2)cc1
inactive: dose: 25.0 mg/kg/injection, schedule: Q01DX001 (ip), vehicle: saline with Tween-80 104 % of control | dose: 50.0 mg/kg/injection, schedule: Q01DX001 (ip), vehicle: saline with Tween-80 95 % of control | dose: 100.0 mg/kg/injection, schedule: Q01DX001 (ip), vehicle: saline with Tween-80 98 % of control and 106 % of control

OC1CSC1
inactive: [4] 89 % of control | [1] 96 % of control | [16] 96 % of control | [17] 98 % of control | [2] 100 % of control | [18] 98 % of control | [19] 98 % of control | dose: 400.0 mg/kg/injection, schedule: Q01DX009 (ip), vehicle: saline with Tween-80 96 % of control | [20] 102 % of control

O=C(CCCc1ccccc1)N1CCOCC1
inactive: dose: 100.0 mg/kg/injection, schedule: Q01DX009 (ip), vehicle: saline sonified 94 % of control | dose: 200.0 mg/kg/injection, schedule: Q01DX009 (ip), vehicle: saline sonified 96 % of control | dose: 400.0 mg/kg/injection, schedule: Q01DX009 (ip), vehicle: saline sonified 102 % of control

CC(C)N(C)C(C1=CC(C)(C)c2ccccc2C1=O)c1ccccc1 (stereo unspecified)
inactive: [5] 108 % of control | [6] 101 % of control | [7] 101 % of control
